What was measured:
Assay in all cases: Ceftazidime MIC with fixed concentration of BLI
Assay type in all cases: cell-based
[1] = test system: AB1054 Acinetobacter baumannii OXA-23; conditions: derivative at 10 μg/mL; AB1054 OXA-23
Experimental: (§1) Next, ceftazidime potentiation activity of several cyclic boronic acid ester derivatives was tested using a larger panel of strains expressing β-lactamase hydrolyzing enzymes. Ceftazidime MICs were determined alone and in the presence of fixed concentrations of various cyclic boronic acid ester derivatives.

[2] = test system: CF1000 Citrobacter freundii Hyper AmpC expression; conditions: derivative at 10 μg/mL
Experimental: as §1

[3] = test system: EC1004 Escherichia coli CMY-2; conditions: derivative at 10 μg/mL; EC1004 CMY-2
Experimental: as §1

[4] = test system: EC1006 Escherichia coli FOX-5; conditions: derivative at 10 μg/mL; EC1006 FOX-5
Experimental: as §1

[5] = test system: EC1007 Escherichia coli KPC-3; conditions: derivative at 10 μg/mL; EC1007 KPC-3
Experimental: as §1

[6] = test system: EC1008 Escherichia coli CTX-M3; conditions: derivative at 10 μg/mL
Experimental: as §1

[7] = test system: EC1009 Escherichia coli TEM-10; conditions: derivative at 10 μg/mL; EC1009 TEM-10
Experimental: as §1

[8] = test system: EC1010 Escherichia coli CMY-6; conditions: derivative at 10 μg/mL; EC1010 CMY-6
Experimental: as §1

[9] = test system: EC1012 Escherichia coli TEM-12; conditions: derivative at 10 μg/mL; EC1012 TEM-12
Experimental: as §1

[10] = test system: EC1014 Escherichia coli DHA-1; conditions: derivative at 10 μg/mL; EC1014 DHA-1
Experimental: as §1

[11] = test system: ECL1002 Enterobacter cloacae Hyper AmpC expression; conditions: derivative at 10 μg/mL
Experimental: as §1

[12] = test system: KP1004 Klebsiella pneumoniae KPC-2; conditions: derivative at 10 μg/mL; KP1004 KPC-2
Experimental: as §1

[13] = test system: KP1005 Klebsiella pneumoniae CTX-M-14; conditions: derivative at 10 μg/mL; KP1005 CTX-M-14
Experimental: as §1

[14] = test system: KP1007 Klebsiella pneumoniae OXA-10; conditions: derivative at 10 μg/mL; KP1007 OXA-10
Experimental: as §1

[15] = test system: KP1008 Klebsiella pneumoniae KPC-2; conditions: derivative at 10 μg/mL; KP1008 KPC-2
Experimental: as §1

[16] = test system: KP1009 Klebsiella pneumoniae CTX-M-15; conditions: derivative at 10 μg/mL; KP1009 CTX-M-15
Experimental: as §1

[17] = test system: KP1010 Klebsiella pneumoniae SHV-12; conditions: derivative at 10 μg/mL; KP1010 SHV-12
Experimental: as §1

[18] = test system: KP1012 Klebsiella pneumoniae SHV-18; conditions: derivative at 10 μg/mL; KP1012 SHV-18
Experimental: as §1

[19] = test system: KX1000 Klebsiella oxytoca OXA-2; conditions: derivative at 10 μg/mL; KX1000 OXA-2
Experimental: as §1

[20] = test system: PAM2005 Pseudomonas aeruginosa ampC; conditions: derivative at 10 μg/mL
Experimental: as §1

[21] = test system: PAM2035 Pseudomonas aeruginosa ampC mexA:tet; conditions: derivative at 10 μg/mL
Experimental: as §1

[22] = test system: ec300 Escherichia coli TEM-3; conditions: derivative at 10 μg/mL; ec300 TEM-3
Experimental: as §1

[23] = test system: ec301 Escherichia coli TEM-6; conditions: derivative at 10 μg/mL; ec301 TEM-6
Experimental: as §1

[24] = test system: ec302 Escherichia coli TEM-10; conditions: derivative at 10 μg/mL; ec302 TEM-10
Experimental: as §1

[25] = test system: ec303 Escherichia coli TEM-12; conditions: derivative at 10 μg/mL; ec303 TEM-12
Experimental: as §1

[26] = test system: ec306 Escherichia coli SHV-2; conditions: derivative at 10 μg/mL; ec306 SHV-2
Experimental: as §1

[27] = test system: ec307 Escherichia coli SHV-4; conditions: derivative at 10 μg/mL; ec307 SHV-4
Experimental: as §1

[28] = test system: ec308 Escherichia coli SHV-5; conditions: derivative at 10 μg/mL; ec308 SHV-5
Experimental: as §1

[29] = test system: ec309 Escherichia coli MIR-1; conditions: derivative at 10 μg/mL; ec309 MIR-1
Experimental: as §1

[30] = test system: ec310 Escherichia coli ACT-1; conditions: derivative at 10 μg/mL; ec310 ACT-1
Experimental: as §1

[31] = test system: pa1063 Pseudomonas aeruginosa GES-1; conditions: derivative at 10 μg/mL; pa1063 GES-1
Experimental: as §1

Row | Compound | Ceftazidime MIC with cyclic boronic acid ester derivative [1] | Ceftazidime MIC with cyclic boronic acid ester derivative [2] | Ceftazidime MIC with cyclic boronic acid ester derivative [3] | Ceftazidime MIC with cyclic boronic acid ester derivative [4] | Ceftazidime MIC with cyclic boronic acid ester derivative [5] | Ceftazidime MIC with cyclic boronic acid ester derivative [6] | Ceftazidime MIC with cyclic boronic acid ester derivative [7] | Ceftazidime MIC with cyclic boronic acid ester derivative [8] | Ceftazidime MIC with cyclic boronic acid ester derivative [9] | Ceftazidime MIC with cyclic boronic acid ester derivative [10] | Ceftazidime MIC with cyclic boronic acid ester derivative [11] | Ceftazidime MIC with cyclic boronic acid ester derivative [12] | Ceftazidime MIC with cyclic boronic acid ester derivative [13] | Ceftazidime MIC with cyclic boronic acid ester derivative [14] | Ceftazidime MIC with cyclic boronic acid ester derivative [15] | Ceftazidime MIC with cyclic boronic acid ester derivative [16] | Ceftazidime MIC with cyclic boronic acid ester derivative [17] | Ceftazidime MIC with cyclic boronic acid ester derivative [18] | Ceftazidime MIC with cyclic boronic acid ester derivative [19] | Ceftazidime MIC with cyclic boronic acid ester derivative [20] | also measured
1 | O=C(O)CC1CC[C@H](NC(=O)C2CC2)B(O)O1 (stereo partly drawn) [Compound 4, 2-((3R)-3-(cyclopropanecarboxamido)-2-hydroxy-1,2-oxaborinan-6-yl)acetic acid] | Z (MIC of greater than 8 μg/mL) | Z (MIC of greater than 8 μg/mL) | Y (MIC of greater than 1 μg/mL to 8 μg/mL) | Z (MIC of greater than 8 μg/mL) | X (MIC of 1 μg/mL or less) | Y (MIC of greater than 1 μg/mL to 8 μg/mL) | Z (MIC of greater than 8 μg/mL) | Y (MIC of greater than 1 μg/mL to 8 μg/mL) | Z (MIC of greater than 8 μg/mL) | Y (MIC of greater than 1 μg/mL to 8 μg/mL) | Y (MIC of greater than 1 μg/mL to 8 μg/mL) | Y (MIC of greater than 1 μg/mL to 8 μg/mL) | Z (MIC of greater than 8 μg/mL) | Z (MIC of greater than 8 μg/mL) | X (MIC of 1 μg/mL or less) | Z (MIC of greater than 8 μg/mL) | Z (MIC of greater than 8 μg/mL) | Z (MIC of greater than 8 μg/mL) | Y (MIC of greater than 1 μg/mL to 8 μg/mL) | Z (MIC of greater than 8 μg/mL) | Ceftazidime MIC with cyclic boronic acid ester derivative [21]: Z (MIC of greater than 8 μg/mL); Ceftazidime MIC with cyclic boronic acid ester derivative [22]: Z (MIC of greater than 8 μg/mL); Ceftazidime MIC with cyclic boronic acid ester derivative [23]: Z (MIC of greater than 8 μg/mL); Ceftazidime MIC with cyclic boronic acid ester derivative [24]: Z (MIC of greater than 8 μg/mL); Ceftazidime MIC with cyclic boronic acid ester derivative [25]: Z (MIC of greater than 8 μg/mL); Ceftazidime MIC with cyclic boronic acid ester derivative [26]: Z (MIC of greater than 8 μg/mL); Ceftazidime MIC with cyclic boronic acid ester derivative [27]: Z (MIC of greater than 8 μg/mL); Ceftazidime MIC with cyclic boronic acid ester derivative [28]: Z (MIC of greater than 8 μg/mL); Ceftazidime MIC with cyclic boronic acid ester derivative [29]: Y (MIC of greater than 1 μg/mL to 8 μg/mL); Ceftazidime MIC with cyclic boronic acid ester derivative [30]: Y (MIC of greater than 1 μg/mL to 8 μg/mL); Ceftazidime MIC with cyclic boronic acid ester derivative [31]: Z (MIC of greater than 8 μg/mL)
2 | O=C(O)C[C@@H]1CC[C@H](NC(=O)Cc2cccs2)B(O)O1 [Compound 5, 2-((3R,6S)-2-hydroxy-3-(2-(thiophen-2-yl)acetamido)-1,2-oxaborinan-6-yl)acetic acid] | Z (MIC of greater than 8 μg/mL) | Y (MIC of greater than 1 μg/mL to 8 μg/mL) | Y (MIC of greater than 1 μg/mL to 8 μg/mL) | Y (MIC of greater than 1 μg/mL to 8 μg/mL) | X (MIC of 1 μg/mL or less) | Y (MIC of greater than 1 μg/mL to 8 μg/mL) | Z (MIC of greater than 8 μg/mL) | Y (MIC of greater than 1 μg/mL to 8 μg/mL) | Y (MIC of greater than 1 μg/mL to 8 μg/mL) | X (MIC of 1 μg/mL or less) | Y (MIC of greater than 1 μg/mL to 8 μg/mL) | Y (MIC of greater than 1 μg/mL to 8 μg/mL) | Z (MIC of greater than 8 μg/mL) | Y (MIC of greater than 1 μg/mL to 8 μg/mL) | X (MIC of 1 μg/mL or less) | Z (MIC of greater than 8 μg/mL) | Y (MIC of greater than 1 μg/mL to 8 μg/mL) | Y (MIC of greater than 1 μg/mL to 8 μg/mL) | Y (MIC of greater than 1 μg/mL to 8 μg/mL) | Z (MIC of greater than 8 μg/mL) | Ceftazidime MIC with cyclic boronic acid ester derivative [21]: Y (MIC of greater than 1 μg/mL to 8 μg/mL); Ceftazidime MIC with cyclic boronic acid ester derivative [22]: Y (MIC of greater than 1 μg/mL to 8 μg/mL); Ceftazidime MIC with cyclic boronic acid ester derivative [23]: Z (MIC of greater than 8 μg/mL); Ceftazidime MIC with cyclic boronic acid ester derivative [24]: Z (MIC of greater than 8 μg/mL); Ceftazidime MIC with cyclic boronic acid ester derivative [25]: Y (MIC of greater than 1 μg/mL to 8 μg/mL); Ceftazidime MIC with cyclic boronic acid ester derivative [26]: Z (MIC of greater than 8 μg/mL); Ceftazidime MIC with cyclic boronic acid ester derivative [27]: Y (MIC of greater than 1 μg/mL to 8 μg/mL); Ceftazidime MIC with cyclic boronic acid ester derivative [28]: Z (MIC of greater than 8 μg/mL); Ceftazidime MIC with cyclic boronic acid ester derivative [29]: X (MIC of 1 μg/mL or less); Ceftazidime MIC with cyclic boronic acid ester derivative [30]: X (MIC of 1 μg/mL or less); Ceftazidime MIC with cyclic boronic acid ester derivative [31]: Z (MIC of greater than 8 μg/mL)
